# According to ChEMBL document CHEMBL2440076, “New triarylpyrazoles as broad-spectrum anticancer agents: design, synthesis, and biological evaluation” (Eur J Med Chem, 2013):
# What was measured:
# Assay type in all cases: functional
# [1] = Growth inhibition of human NCI-ADR-RES cells assessed as cell growth at 5X10'-6 M after 48 hrs by sulforhodamine B assay; settings: read-out: Activity
# UACC-257 = test: Growth inhibition of human UACC257 cells assessed as cell growth at 3X10'-7 M after 48 hrs by sulforhodamine B assay; settings: UACC-257, 48 h, read-out: Activity
# HOP-92 [2] = test: Growth inhibition of human HOP92 cells assessed as cell growth at 3X10'-7 M after 48 hrs by sulforhodamine B assay; settings: HOP-92, 48 h, read-out: Activity
# [3] = Growth inhibition of human Hs 578T cells assessed as cell growth at 3X10'-6 M after 48 hrs by sulforhodamine B assay; settings: read-out: Activity
# OVCAR-4 = test: Growth inhibition of human OVCAR4 cells assessed as cell growth at 3X10'-6 M after 48 hrs by sulforhodamine B assay; settings: OVCAR-4, 48 h, read-out: Activity
# T47D = test: Growth inhibition of human T47D cells assessed as cell growth at 3X10'-8 M after 48 hrs by sulforhodamine B assay; settings: read-out: Activity
# OVCAR-5 [4] = test: Growth inhibition of human OVCAR5 cells assessed as cell growth at 3X10'-7 M after 48 hrs by sulforhodamine B assay; settings: OVCAR-5, 48 h, read-out: Activity
# SK-MEL-2 [5] = test: Growth inhibition of human SK-MEL-2 cells assessed as cell growth at 3X10'-7 M after 48 hrs by sulforhodamine B assay; settings: SK-MEL-2, 48 h, read-out: Activity
# SR = test: Growth inhibition of human SR cells assessed as cell growth at 3X10'-7 M after 48 hrs by sulforhodamine B assay; settings: read-out: Activity
# NCI-H322M = test: Growth inhibition of human NCI-H322M cells assessed as cell growth at 3X10'-6 M after 48 hrs by sulforhodamine B assay; settings: read-out: Activity
# SK-MEL-2 [6] = test: Growth inhibition of human SK-MEL-2 cells assessed as cell growth at 3X10'-5 M after 48 hrs by sulforhodamine B assay; settings: SK-MEL-2, 48 h, read-out: Activity
# SK-OV-3 = test: Growth inhibition of human SKOV3 cells assessed as cell growth at 3X10'-8 M after 48 hrs by sulforhodamine B assay; settings: SK-OV-3, 48 h, read-out: Activity
# HOP-92 [7] = test: Growth inhibition of human HOP92 cells assessed as cell growth at 3X10'-9 M after 48 hrs by sulforhodamine B assay; settings: HOP-92, 48 h, read-out: Activity
# Malme-3M [8] = test: Growth inhibition of human MALME-3M cells assessed as cell growth at 3X10'-6 M after 48 hrs by sulforhodamine B assay; settings: read-out: Activity
# [9] = Growth inhibition of human NCI-ADR-RES cells assessed as cell growth at 3X10'-5 M after 48 hrs by sulforhodamine B assay; settings: read-out: Activity
# MCF7 = test: Growth inhibition of human MCF7 cells assessed as cell growth at 3X10'-5 M after 48 hrs by sulforhodamine B assay; settings: MCF7, 48 h, read-out: Activity
# SNB-19 = test: Growth inhibition of human SNB19 cells assessed as cell growth at 3X10'-6 M after 48 hrs by sulforhodamine B assay; settings: SNB-19, 48 h, read-out: Activity
# 786-0 [10] = test: Growth inhibition of human 786-0 cells assessed as cell growth at 3X10'-8 M after 48 hrs by sulforhodamine B assay; settings: 786-0, 48 h, read-out: Activity
# OVCAR-5 [11] = test: Growth inhibition of human OVCAR5 cells assessed as cell growth at 3X10'-6 M after 48 hrs by sulforhodamine B assay; settings: OVCAR-5, 48 h, read-out: Activity
# Malme-3M [12] = test: Growth inhibition of human MALME-3M cells assessed as cell growth at 3X10'-5 M after 48 hrs by sulforhodamine B assay; settings: read-out: Activity
# HOP-92 [13] = test: Growth inhibition of human HOP92 cells assessed as cell growth at 3X10'-5 M after 48 hrs by sulforhodamine B assay; settings: HOP-92, 48 h, read-out: Activity
# 786-0 [14] = test: Growth inhibition of human 786-0 cells assessed as cell growth at 3X10'-7 M after 48 hrs by sulforhodamine B assay; settings: 786-0, 48 h, read-out: Activity
# HCT-116 = test: Growth inhibition of human HCT116 cells assessed as cell growth at 3X10'-6 M after 48 hrs by sulforhodamine B assay; settings: HCT-116, 48 h, read-out: Activity
# UO-31 = test: Growth inhibition of human UO31 cells assessed as cell growth at 3X10'-8 M after 48 hrs by sulforhodamine B assay; settings: UO-31, 48 h, read-out: Activity
# PC-3 = test: Growth inhibition of human PC3 cells assessed as cell growth at 3X10'-5 M after 48 hrs by sulforhodamine B assay; settings: PC-3, 48 h, read-out: Activity
# LOX IMVI [15] = test: Growth inhibition of human LOXIMVI cells assessed as cell growth at 3X10'-9 M after 48 hrs by sulforhodamine B assay; settings: read-out: Activity
# CAKI-1 = test: Growth inhibition of human CAKI-1 cells assessed as cell growth at 3X10'-7 M after 48 hrs by sulforhodamine B assay; settings: CAKI-1, 48 h, read-out: Activity
# SN12C = test: Growth inhibition of human SN12C cells assessed as cell growth at 3X10'-5 M after 48 hrs by sulforhodamine B assay; settings: read-out: Activity
# LOX IMVI [16] = test: Growth inhibition of human LOXIMVI cells assessed as cell growth at 3X10'-8 M after 48 hrs by sulforhodamine B assay; settings: read-out: Activity
# SK-MEL-5 = test: Growth inhibition of human SK-MEL-5 cells assessed as cell growth at 3X10'-8 M after 48 hrs by sulforhodamine B assay; settings: SK-MEL-5, 48 h, read-out: Activity
# U-251 = test: Growth inhibition of human U251 cells assessed as cell growth at 3X10'-5 M after 48 hrs by sulforhodamine B assay; settings: U-251, 48 h, read-out: Activity
# Malme-3M [17] = test: Growth inhibition of human MALME-3M cells assessed as cell growth at 3X10'-8 M after 48 hrs by sulforhodamine B assay; settings: read-out: Activity
# SF-295 = test: Growth inhibition of human SF295 cells assessed as cell growth at 3X10'-8 M after 48 hrs by sulforhodamine B assay; settings: SF-295, 48 h, read-out: Activity
# MDA-MB-435 = test: Growth inhibition of human MDA-MB-435 cells assessed as cell growth at 3X10'-9 M after 48 hrs by sulforhodamine B assay; settings: MDA-MB-435, 48 h, read-out: Activity
# [18] = Growth inhibition of human HCC2998 cells assessed as cell growth at 3X10'-6 M after 48 hrs by sulforhodamine B assay; settings: HCC 2998, 48 h, read-out: Activity
# COLO 205 = test: Growth inhibition of human COLO205 cells assessed as cell growth at 3X10'-7 M after 48 hrs by sulforhodamine B assay; settings: COLO 205, 48 h, read-out: Activity
# OVCAR-8 = test: Growth inhibition of human OVCAR8 cells assessed as cell growth at 3X10'-6 M after 48 hrs by sulforhodamine B assay; settings: OVCAR-8, 48 h, read-out: Activity
# SW-620 = test: Growth inhibition of human SW620 cells assessed as cell growth at 3X10'-5 M after 48 hrs by sulforhodamine B assay; settings: SW-620, 48 h, read-out: Activity
Structure (SMILES),growth at 5 µM [1],growth at 0.3 µM (UACC-257),growth at 0.3 µM (HOP-92 [2]),growth at 3 µM [3],growth at 3 µM (OVCAR-4),growth at 0.03 µM (T47D),growth at 0.3 µM (OVCAR-5 [4]),growth at 0.3 µM (SK-MEL-2 [5]),growth at 0.3 µM (SR),growth at 3 µM (NCI-H322M),growth at 30 µM (SK-MEL-2 [6]),growth at 0.03 µM (SK-OV-3),growth at 0.003 µM (HOP-92 [7]),growth at 3 µM (Malme-3M [8]),growth at 30 µM [9],growth at 30 µM (MCF7),growth at 3 µM (SNB-19),growth at 0.03 µM (786-0 [10]),growth at 3 µM (OVCAR-5 [11]),growth at 30 µM (Malme-3M [12]),further results
COc1cc(-c2nn(-c3cccc(NC(=O)Nc4cccc(C(F)(F)F)c4)c3)cc2-c2ccncc2)ccc1Cl,-10%,,,,,,,,,,,,,,,,,,,,
COc1cc(-c2nn(-c3cccc(NC(=O)Nc4ccc(Cl)c(C(F)(F)F)c4)c3)cc2-c2ccncc2)ccc1Cl,,91%,70%,25%,19%,101%,89%,111%,98%,29%,-64%,104%,68%,-16%,-5%,2%,19%,102%,49%,-47%,growth at 30 µM (HOP-92 [13]): -46%; growth at 0.3 µM (786-0 [14]): 101%; growth at 3 µM (HCT-116): 11%; growth at 0.03 µM (UO-31): 89%; growth at 30 µM (PC-3): -20%; growth at 0.003 µM (LOX IMVI [15]): 97%; growth at 0.3 µM (CAKI-1): 93%; growth at 30 µM (SN12C): -19%; growth at 0.03 µM (LOX IMVI [16]): 100%; growth at 0.03 µM (SK-MEL-5): 91%; growth at 30 µM (U-251): -58%; growth at 0.03 µM (Malme-3M [17]): 102%; growth at 0.03 µM (SF-295): 90%; growth at 0.003 µM (MDA-MB-435): 98%; growth at 3 µM [18]: 26%; growth at 0.3 µM (COLO 205): 101%; growth at 3 µM (OVCAR-8): 5%; growth at 30 µM (SW-620): -1%
O=C(Nc1cccc(-n2cc(-c3ccncc3)c(-c3ccc(Cl)c(O)c3)n2)c1)c1ccc(N2CCOCC2)c(C(F)(F)F)c1,35%,,,,,,,,,,,,,,,,,,,,
O=C(Nc1cccc(-n2cc(-c3ccncc3)c(-c3ccc(Cl)c(O)c3)n2)c1)Nc1ccc(Cl)c(Cl)c1,,93%,86%,-1%,28%,95%,104%,111%,97%,47%,-50%,99%,98%,10%,6%,2%,23%,96%,42%,-15%,growth at 30 µM (HOP-92 [13]): -31%; growth at 0.3 µM (786-0 [14]): 103%; growth at 3 µM (HCT-116): 13%; growth at 0.03 µM (UO-31): 92%; growth at 30 µM (PC-3): 1%; growth at 0.003 µM (LOX IMVI [15]): 96%; growth at 0.3 µM (CAKI-1): 88%; growth at 30 µM (SN12C): 3%; growth at 0.03 µM (LOX IMVI [16]): 91%; growth at 0.03 µM (SK-MEL-5): 96%; growth at 30 µM (U-251): -28%; growth at 0.03 µM (Malme-3M [17]): 89%; growth at 0.003 µM (MDA-MB-435): 95%; growth at 3 µM [18]: 47%; growth at 0.3 µM (COLO 205): 104%; growth at 3 µM (OVCAR-8): 16%; growth at 30 µM (SW-620): 1%
O=C(Nc1cccc(-n2cc(-c3ccncc3)c(-c3ccc(Cl)c(O)c3)n2)c1)Nc1cc(C(F)(F)F)cc(C(F)(F)F)c1,1%,,,,,,,,,,,,,,,,,,,,
